Measurements taken from US20250115597A1, “TYK2 INHIBITORS AND COMPOSITIONS AND METHODS THEREOF” (LYNK PHARMACEUTICALS CO. LTD., priority 2021, published 2025).
Read-outs that look alike come from different tables or passages of the source.

Columns and labels:
[1] = Microsomal metabolic stability assay; assay type: in vitro ADME; conditions: pH 7.4, 0.5 mg/mL protein, 1 μM compound
Method: Microsomal Metabolic Stability Assay
Microsomes were pre-incubated with test compound or control compounds for 5 min at 37° C. in 100 mM potassium phosphate buffer, pH 7.4, 1.0 mM EDTA. The reaction was initiated by addition of 15 μL of the NADPH regenerating system to 30 μL of each incubation mixture per time point. The final incubation condition was composed of 0.5 mg/mL microsomal protein, 1 μM test article/positive control, 2 mM NADPH. The 0-minute samples were prepared by addition of a 30 μL aliquot of each incubation mixture to 135 μL quench reagent to precipitate proteins. And then a 15 μL aliquot of the NADPH regenerating system was added. At 5, 15, 30 and 45 minutes, the reaction will be stopped by the addition of cold acetonitrile solution containing internal standard. The samples taken at all time points were centrifuged at 5000×g for 15 minutes. 50 μL of supernatant are taken into 96-well assay plates pre-added with 50 μL ultrapure water, and then analyzed by LC/MS/MS.
Concentrations of test articles, control compounds in the samples were determined by using LC/MS/MS method. Plotting of the chromatograms and peak area integrations are carried out by Analyst (AB Sciex).
n the determination of the in vitro elimination constant (ke) of the control compounds, the analyte/internal standard peak area ratios will be converted to percentage remaining (% Remaining) with the following equation: […]
The slope was measured by the natural logarithm of the percentage of the residual compound and time, T1/2 was calculated according to the following formula.

[2] = target: T1, Ba/F3-FL-TYK2-P760L cells (Homo sapiens, UniProt P29597, P760L, cells depend on it); test: Anti-proliferative assay, Ba/F3-FL-TYK2-P760L cells (Cell-Titer Glo); assay type: cell-based; conditions: 72 h, read-out: BaF3-FL-T2P760L IC50
T1 construct: BaF3-FL-T2P760L (nM)
T1 sequence (P29597 whole entry P760L): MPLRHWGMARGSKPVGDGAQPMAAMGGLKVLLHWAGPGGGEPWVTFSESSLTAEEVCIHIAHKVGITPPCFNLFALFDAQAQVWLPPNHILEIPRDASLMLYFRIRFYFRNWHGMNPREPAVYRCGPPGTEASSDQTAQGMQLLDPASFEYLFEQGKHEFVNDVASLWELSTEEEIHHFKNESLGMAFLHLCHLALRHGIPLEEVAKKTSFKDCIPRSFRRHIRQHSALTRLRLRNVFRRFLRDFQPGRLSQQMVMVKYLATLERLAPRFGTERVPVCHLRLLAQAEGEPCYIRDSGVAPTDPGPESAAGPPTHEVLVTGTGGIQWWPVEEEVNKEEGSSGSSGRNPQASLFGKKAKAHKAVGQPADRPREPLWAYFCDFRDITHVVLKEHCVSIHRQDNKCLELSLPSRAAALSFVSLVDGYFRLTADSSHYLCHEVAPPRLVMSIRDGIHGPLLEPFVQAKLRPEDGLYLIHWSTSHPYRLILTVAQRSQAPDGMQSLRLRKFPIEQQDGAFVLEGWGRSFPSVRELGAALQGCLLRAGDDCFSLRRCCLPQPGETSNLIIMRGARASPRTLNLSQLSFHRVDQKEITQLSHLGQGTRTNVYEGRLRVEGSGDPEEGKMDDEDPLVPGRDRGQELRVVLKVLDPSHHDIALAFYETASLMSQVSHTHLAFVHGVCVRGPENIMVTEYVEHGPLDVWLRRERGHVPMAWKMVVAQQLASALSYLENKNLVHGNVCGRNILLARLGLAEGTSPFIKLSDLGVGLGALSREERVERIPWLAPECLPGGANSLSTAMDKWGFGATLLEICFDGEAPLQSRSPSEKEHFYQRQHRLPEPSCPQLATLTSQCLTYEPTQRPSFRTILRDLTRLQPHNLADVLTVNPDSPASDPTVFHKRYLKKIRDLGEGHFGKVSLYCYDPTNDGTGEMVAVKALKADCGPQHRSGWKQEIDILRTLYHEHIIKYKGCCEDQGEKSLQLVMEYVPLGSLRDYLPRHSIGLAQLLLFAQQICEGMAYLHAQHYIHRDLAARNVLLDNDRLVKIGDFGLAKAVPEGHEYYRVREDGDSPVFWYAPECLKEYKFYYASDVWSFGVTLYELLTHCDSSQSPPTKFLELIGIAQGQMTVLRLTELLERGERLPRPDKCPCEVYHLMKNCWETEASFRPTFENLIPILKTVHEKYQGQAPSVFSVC
Method in brief: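 Ba/F3 cells made IL-3-independent by TEL-fused or full-length mutant JAK-family kinases, seeded at 2000/well and dosed after 24 h with 9 three-fold dilutions topping at 20 μM. Viability after 72 h at 37 °C, 5% CO2 by Cell-Titer Glo ATP luminescence.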

[3] = human liver microsomes, read-out: Human LM Clint
[4] = human liver microsomes, read-out: Human LM T½
[5] = rat liver microsomes, read-out: Rat LM Clint
[6] = rat liver microsomes, read-out: Rat LM T½
[7] = dog liver microsomes, read-out: Dog LM Clint
[8] = dog liver microsomes, read-out: Dog LM T½

| microsomal CLint at 1 μM [1, 3] [µL/min/mg] | half-life at 1 μM [1, 4] [min] | microsomal CLint at 1 μM [1, 5] [µL/min/mg] | half-life at 1 μM [1, 6] [min] | GI50 [2] [µM] | microsomal CLint at 1 μM [1, 7] [µL/min/mg] | half-life at 1 μM [1, 8] [min] | SMILES |
| --- | --- | --- | --- | --- | --- | --- | --- |
| 6.48 | 214 | 6.84 | 203 | 0.0421 | 23.1 | 59.9 | [2H]C([2H])([2H])NC(=O)c1cnc2cc1Nc1cc(cc(-c3ncn(C)n3)c1OC)COCc1nc(ccc1F)N2 [Example 66, 18-Fluoro-10-methoxy-N-(methyl-d3)-11-(1-methyl-1H-1,2,4-triazol-3-yl)-15-oxa-2,4,8,21-tetraazatetracyclo[15.3.1.1^{3,7}.1^{9,13}]tricosa-1(20),3,5,7(23),9(22),10,12,17(21),18-nonaene-6-carboxamide] |
|  | > 120 | 3.32 | 418 | 0.0799 | 1.92 | 722 | [2H]C([2H])([2H])NC(=O)c1cnc2cc1Nc1cc(cc(-c3ncn(C)n3)c1OC)COCc1cc(C(F)(F)F)cc(n1)N2 [Example 69, 10-Methoxy-N-(methyl-d3)-11-(1-methyl-1H-1,2,4-triazol-3-yl)-19-(trifluoromethyl)-15-oxa-2,4,8,21-tetraazatetracyclo[15.3.1.1^{3,7}.1^{9,13}]tricosa-1(21),3,5,7(23),9(22),10,12,17,19-nonaene-6-carboxamide] |
|  |  |  |  | 0.155 |  |  | [2H]C([2H])([2H])NC(=O)c1cnc(Nc2ccc(F)cn2)cc1Nc1ccn2ncc(C)c2c1OC [Example 222, 6-((5-Fluoropyridin-2-yl)amino)-4-((4-methoxy-3-methylpyrazolo[1,5-a]pyridin-5-yl)amino)-N-(methyl-d3)nicotinamide] |
|  |  |  |  | 3.27 |  |  | [2H]C([2H])([2H])NC(=O)c1cnc(NC(=O)C2CC2)cc1Nc1ccc2onc(CC)c2c1OC [Example 233, 6-(Cyclopropanecarboxamido)-4-((3-ethyl-4-methoxybenzo[d]isoxazol-5-yl)amino)-N-(methyl-d3)nicotinamide] |
|  |  |  |  | 4.07 |  |  | CCn1ncc2ccc(Nc3ccnc(NC(=O)C4CC4)c3)c(OC)c21 [Example 237, N-(4-((1-ethyl-7-methoxy-1H-indazol-6-yl)amino)pyridin-2-yl)cyclopropanecarboxamide] |
|  |  |  |  | > 5 |  |  | [2H]C([2H])([2H])NC(=O)c1cnc(NC(=O)C2(C(F)(F)F)CC2)cc1Nc1ccc2cnn(CC)c2c1OC [Example 238, 4-((1-Ethyl-7-methoxy-1H-indazol-6-yl)amino)-N-(methyl-d3)-6-(1-(trifluoromethyl)cyclopropane-1-carboxamido)nicotinamide] |
|  |  |  |  | > 5 |  |  | CCc1nc2c(Nc3cc(NC(=O)C4CC4)ncc3C(=O)NC)cn(C)c2c(=O)n1C [Example 247, 6-(Cyclopropanecarboxamido)-4-((2-ethyl-3,5-dimethyl-4-oxo-4,5-dihydro-3H-pyrrolo[3,2-d]pyrimidin-7-yl)amino)-N-methylnicotinamide] |
|  |  |  |  | 1.42 |  |  | CNC(=O)c1cnc(NC(=O)C2CC2)cc1Nc1ccc2nc3n(c2c1OC)CCC3 [Example 248, 6-(Cyclopropanecarboxamido)-4-((8-methoxy-2,3-dihydro-1H-benzo[d]pyrrolo[1,2-a]imidazol-7-yl)amino)-N-methylnicotinamide] |

The remaining lines, values behind:

| SMILES | microsomal CLint at 1 μM [1, 3] [µL/min/mg] | half-life at 1 μM [1, 4] [min] | microsomal CLint at 1 μM [1, 5] [µL/min/mg] | half-life at 1 μM [1, 6] [min] | GI50 [2] [µM] | microsomal CLint at 1 μM [1, 7] [µL/min/mg] | half-life at 1 μM [1, 8] [min] |
| --- | --- | --- | --- | --- | --- | --- | --- |
| CNC(=O)c1cnc(Nc2ccc(F)cn2)cc1Nc1cn(C)c2ccn(C)c(=O)c12 [Example 11, 4-((1,5-Dimethyl-4-oxo-4,5-dihydro-1H-pyrrolo[3,2-c]pyridin-3-yl)amino)-6-((5-fluoropyridin-2-yl)amino)-N-methylnicotinamide] | 74 | 18.7 | 30.6 | 45.3 | 0.124 |  |  |
| CNC(=O)c1cnc(NC(=O)C2CC2)cc1Nc1cn(C)c2ccn(C)c(=O)c12 [Example 12, 6-(Cyclopropanecarboxamido)-4-((1,5-dimethyl-4-oxo-4,5-dihydro-1H-pyrrolo[3,2-c]pyridin-3-yl)amino)-N-methylnicotinamide] | 25.8 | 53.7 | 16.4 | 84.5 | 0.416 |  |  |
| CNC(=O)c1cnc(NC(=O)C2CC2)cc1Nc1csc2ccn(C)c(=O)c12 [Example 16, 6-(Cyclopropanecarboxamido)-N-methyl-4-((5-methyl-4-oxo-4,5-dihydrothieno[3,2-c]pyridin-3-yl)amino)nicotinamide] | 27.8 | 49.9 | 126 | 11 | 0.0893 | 8.46 | 164 |
| [2H]C([2H])([2H])NC(=O)c1cnc(Nc2ccc(F)cn2)cc1Nc1ccc2cnn(CC)c2c1OC [Example 42, 4-((1-Ethyl-7-methoxy-1H-indazol-6-yl)amino)-6-((5-fluoropyridin-2-yl)amino)-N-(methyl-d3)nicotinamide] | 11.9 | 117 | 43.9 | 31.6 | 0.0388 | 117 | 11.9 |
| [2H]C([2H])([2H])NC(=O)c1cnc(Nc2ccn(C)n2)cc1Nc1ccc2cnn(CC)c2c1OC [Example 43, 4-((1-Ethyl-7-methoxy-1H-indazol-6-yl)amino)-N-(methyl-d3)-6-((1-methyl-1H-pyrazol-3-yl)amino)nicotinamide] | 9.58 | 145 | 48.5 | 28.6 | 0.0852 | 30.8 | 45 |
| [2H]C([2H])([2H])NC(=O)c1cnc(NC(=O)C2CC2)cc1Nc1cnn2ccn(CC(F)(F)F)c(=O)c12 [Example 45, 6-(Cyclopropanecarboxamido)-N-(methyl-d3)-4-((4-oxo-5-(2,2,2-trifluoroethyl)-4,5-dihydropyrazolo[1,5-a]pyrazin-3-yl)amino)nicotinamide] | 51.9 | 26.7 | 110 | 12.6 | 0.16 | 8.76 | 158 |
| COC(=O)c1cnc(NC(=O)C2CC2)cc1Nc1ncn2ccn(CC(F)(F)F)c(=O)c12 [Example 47, Methyl 6-(cyclopropanecarboxamido)-4-((8-oxo-7-(2,2,2-trifluoroethyl)-7,8-dihydroimidazo[1,5-a]pyrazin-1-yl)amino)nicotinate] | 45.2 | 30.7 | 80 | 17.3 | 0.18 | 25 | 55.4 |
| [2H]C([2H])([2H])NC(=O)c1cnc(NC(=O)C2CC2)cc1Nc1ccc2nnc(CC)n2c1OC [Example 58, 6-(Cyclopropanecarboxamido)-4-((3-ethyl-5-methoxy-[1,2,4]triazolo[4,3-a]pyridin-6-yl)amino)-N-(methyl-d3)nicotinamide] | < 11.5 | > 120 | < 11.5 | > 120 | > 5 | < 11.5 | > 120 |
